Laboratory results from ChEMBL document CHEMBL1139396, “Novel N9-arenethenyl purines as potent dual Src/Abl tyrosine kinase inhibitors” (Bioorg Med Chem Lett, 2008).

Key:
[1] = tested on: K562; assay: Cytotoxicity against human K562 cells transfected with wild-type Bcr-Abl
[2] = Cytotoxicity against mouse BA/F3 cells transfected with wild-type Bcr-Abl; details: BaF3
[3] = target: Proto-oncogene tyrosine-protein kinase Src (Homo sapiens, UniProt P12931); assay: Inhibition of human Src kinase by TR-FRET assay
Chain of Proto-oncogene tyrosine-protein kinase Src (P12931 2-536 limits assumed): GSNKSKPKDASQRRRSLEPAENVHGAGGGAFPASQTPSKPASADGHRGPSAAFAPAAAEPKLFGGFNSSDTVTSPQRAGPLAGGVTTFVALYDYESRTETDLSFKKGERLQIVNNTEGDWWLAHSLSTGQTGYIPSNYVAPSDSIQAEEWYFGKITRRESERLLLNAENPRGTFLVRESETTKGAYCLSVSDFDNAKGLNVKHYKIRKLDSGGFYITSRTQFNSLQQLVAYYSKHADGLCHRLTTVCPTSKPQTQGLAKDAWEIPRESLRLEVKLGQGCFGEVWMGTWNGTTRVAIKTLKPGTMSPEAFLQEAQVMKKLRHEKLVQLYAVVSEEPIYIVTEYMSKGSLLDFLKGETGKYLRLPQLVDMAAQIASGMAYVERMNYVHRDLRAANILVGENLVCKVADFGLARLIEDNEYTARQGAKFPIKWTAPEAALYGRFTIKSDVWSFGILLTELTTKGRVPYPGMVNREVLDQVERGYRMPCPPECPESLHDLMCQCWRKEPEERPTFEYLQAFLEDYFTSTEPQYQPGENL

[4] = target: Tyrosine-protein kinase ABL1 (Homo sapiens, UniProt P00519)
Chain of Tyrosine-protein kinase ABL1 (P00519 whole entry): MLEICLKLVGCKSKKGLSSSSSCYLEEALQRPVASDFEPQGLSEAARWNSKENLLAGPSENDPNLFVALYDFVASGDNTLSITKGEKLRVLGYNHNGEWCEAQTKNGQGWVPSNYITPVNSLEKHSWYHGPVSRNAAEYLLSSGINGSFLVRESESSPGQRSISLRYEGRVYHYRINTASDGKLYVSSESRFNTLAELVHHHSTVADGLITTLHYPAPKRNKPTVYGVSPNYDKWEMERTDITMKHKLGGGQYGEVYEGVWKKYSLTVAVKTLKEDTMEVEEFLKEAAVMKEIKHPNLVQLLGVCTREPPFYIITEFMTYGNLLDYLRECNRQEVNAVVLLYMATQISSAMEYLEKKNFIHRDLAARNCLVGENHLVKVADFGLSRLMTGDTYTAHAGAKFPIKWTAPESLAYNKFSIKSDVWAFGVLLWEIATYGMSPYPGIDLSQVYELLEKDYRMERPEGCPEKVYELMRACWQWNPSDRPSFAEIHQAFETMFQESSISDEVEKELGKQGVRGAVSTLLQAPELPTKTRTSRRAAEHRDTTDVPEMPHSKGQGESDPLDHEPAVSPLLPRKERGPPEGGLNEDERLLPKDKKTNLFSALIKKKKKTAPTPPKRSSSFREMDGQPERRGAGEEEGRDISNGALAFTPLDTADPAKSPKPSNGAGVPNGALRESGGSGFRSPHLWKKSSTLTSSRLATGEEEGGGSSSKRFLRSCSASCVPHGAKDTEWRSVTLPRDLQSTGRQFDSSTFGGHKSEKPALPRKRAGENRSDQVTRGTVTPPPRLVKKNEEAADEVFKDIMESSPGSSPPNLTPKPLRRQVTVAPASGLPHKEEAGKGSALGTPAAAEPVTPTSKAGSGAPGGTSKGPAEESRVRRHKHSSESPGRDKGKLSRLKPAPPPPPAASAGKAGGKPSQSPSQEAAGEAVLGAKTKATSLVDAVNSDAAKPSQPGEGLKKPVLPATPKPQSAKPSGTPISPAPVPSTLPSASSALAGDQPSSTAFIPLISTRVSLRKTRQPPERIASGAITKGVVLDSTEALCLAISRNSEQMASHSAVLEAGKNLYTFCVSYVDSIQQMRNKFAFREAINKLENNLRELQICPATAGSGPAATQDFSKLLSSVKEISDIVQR

[5] = Half life in rat at 5 mg/kg, iv; format: ADME, organism-based; parameters: dose 5 mg/kg, route intravenous; details: in vivo
[6] = Cmax in rat at 5 mg/kg, po; format: ADME, organism-based; parameters: dose 5 mg/kg, route oral; details: in vivo
[7] = Half life in rat at 5 mg/kg, po; format: ADME, organism-based; parameters: dose 5 mg/kg, route oral; details: in vivo
[8] = Oral bioavailability in rat at 5 mg/kg; format: ADME, organism-based; details: in vivo
[9] = Volume of distribution at steady state in rat at 5 mg/kg, iv; format: ADME, organism-based; parameters: dose 5 mg/kg, route intravenous; details: in vivo, read-out: Vdss
[10] = Cmax in rat at 5 mg/kg, iv; format: ADME, organism-based; parameters: dose 5 mg/kg, route intravenous; details: in vivo
[11] = target: Platelet-derived growth factor receptor alpha (Homo sapiens, UniProt P16234); assay: Inhibition of PDGFRalpha
Chain of Platelet-derived growth factor receptor alpha (P16234 whole entry): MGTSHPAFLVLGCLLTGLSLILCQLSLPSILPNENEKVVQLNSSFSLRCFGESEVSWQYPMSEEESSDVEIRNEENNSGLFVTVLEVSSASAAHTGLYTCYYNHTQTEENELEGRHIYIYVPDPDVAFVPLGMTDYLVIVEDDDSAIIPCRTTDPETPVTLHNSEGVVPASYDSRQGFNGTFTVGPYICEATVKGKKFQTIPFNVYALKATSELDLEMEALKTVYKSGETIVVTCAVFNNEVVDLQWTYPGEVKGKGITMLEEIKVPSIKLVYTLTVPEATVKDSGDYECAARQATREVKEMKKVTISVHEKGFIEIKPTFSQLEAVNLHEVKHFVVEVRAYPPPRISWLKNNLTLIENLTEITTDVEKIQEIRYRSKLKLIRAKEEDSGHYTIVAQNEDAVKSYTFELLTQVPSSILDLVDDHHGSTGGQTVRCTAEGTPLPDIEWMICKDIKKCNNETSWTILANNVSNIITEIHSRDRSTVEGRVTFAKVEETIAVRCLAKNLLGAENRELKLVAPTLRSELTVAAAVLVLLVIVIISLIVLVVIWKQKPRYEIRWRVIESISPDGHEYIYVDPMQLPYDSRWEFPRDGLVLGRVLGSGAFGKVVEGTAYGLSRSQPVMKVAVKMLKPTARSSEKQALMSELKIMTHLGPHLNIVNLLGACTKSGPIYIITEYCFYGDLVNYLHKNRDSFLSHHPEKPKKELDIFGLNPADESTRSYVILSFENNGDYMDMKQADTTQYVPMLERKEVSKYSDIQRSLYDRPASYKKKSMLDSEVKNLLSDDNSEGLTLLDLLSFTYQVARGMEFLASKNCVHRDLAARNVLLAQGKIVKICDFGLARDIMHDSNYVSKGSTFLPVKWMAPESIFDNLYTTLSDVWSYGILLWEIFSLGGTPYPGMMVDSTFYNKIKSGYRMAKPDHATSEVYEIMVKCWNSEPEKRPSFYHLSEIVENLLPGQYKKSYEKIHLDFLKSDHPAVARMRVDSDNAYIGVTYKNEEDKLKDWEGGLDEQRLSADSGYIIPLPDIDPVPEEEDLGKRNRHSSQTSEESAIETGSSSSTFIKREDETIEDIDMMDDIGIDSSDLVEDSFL

[12] = Inhibition of Aurora kinase
[13] = target: Insulin receptor (Homo sapiens, UniProt P06213); assay: Inhibition of InsR
[14] = target: Ephrin type-A receptor 7 (Homo sapiens) (UniProt Q15375); assay: Inhibition of EphA7
[15] = target: RAF proto-oncogene serine/threonine-protein kinase (Homo sapiens, UniProt P04049); assay: Inhibition of c-Raf
[16] = target: Vascular endothelial growth factor receptor 3 (Homo sapiens, UniProt P35916); assay: Inhibition of Flt4
Chain of Vascular endothelial growth factor receptor 3 (P35916 whole entry): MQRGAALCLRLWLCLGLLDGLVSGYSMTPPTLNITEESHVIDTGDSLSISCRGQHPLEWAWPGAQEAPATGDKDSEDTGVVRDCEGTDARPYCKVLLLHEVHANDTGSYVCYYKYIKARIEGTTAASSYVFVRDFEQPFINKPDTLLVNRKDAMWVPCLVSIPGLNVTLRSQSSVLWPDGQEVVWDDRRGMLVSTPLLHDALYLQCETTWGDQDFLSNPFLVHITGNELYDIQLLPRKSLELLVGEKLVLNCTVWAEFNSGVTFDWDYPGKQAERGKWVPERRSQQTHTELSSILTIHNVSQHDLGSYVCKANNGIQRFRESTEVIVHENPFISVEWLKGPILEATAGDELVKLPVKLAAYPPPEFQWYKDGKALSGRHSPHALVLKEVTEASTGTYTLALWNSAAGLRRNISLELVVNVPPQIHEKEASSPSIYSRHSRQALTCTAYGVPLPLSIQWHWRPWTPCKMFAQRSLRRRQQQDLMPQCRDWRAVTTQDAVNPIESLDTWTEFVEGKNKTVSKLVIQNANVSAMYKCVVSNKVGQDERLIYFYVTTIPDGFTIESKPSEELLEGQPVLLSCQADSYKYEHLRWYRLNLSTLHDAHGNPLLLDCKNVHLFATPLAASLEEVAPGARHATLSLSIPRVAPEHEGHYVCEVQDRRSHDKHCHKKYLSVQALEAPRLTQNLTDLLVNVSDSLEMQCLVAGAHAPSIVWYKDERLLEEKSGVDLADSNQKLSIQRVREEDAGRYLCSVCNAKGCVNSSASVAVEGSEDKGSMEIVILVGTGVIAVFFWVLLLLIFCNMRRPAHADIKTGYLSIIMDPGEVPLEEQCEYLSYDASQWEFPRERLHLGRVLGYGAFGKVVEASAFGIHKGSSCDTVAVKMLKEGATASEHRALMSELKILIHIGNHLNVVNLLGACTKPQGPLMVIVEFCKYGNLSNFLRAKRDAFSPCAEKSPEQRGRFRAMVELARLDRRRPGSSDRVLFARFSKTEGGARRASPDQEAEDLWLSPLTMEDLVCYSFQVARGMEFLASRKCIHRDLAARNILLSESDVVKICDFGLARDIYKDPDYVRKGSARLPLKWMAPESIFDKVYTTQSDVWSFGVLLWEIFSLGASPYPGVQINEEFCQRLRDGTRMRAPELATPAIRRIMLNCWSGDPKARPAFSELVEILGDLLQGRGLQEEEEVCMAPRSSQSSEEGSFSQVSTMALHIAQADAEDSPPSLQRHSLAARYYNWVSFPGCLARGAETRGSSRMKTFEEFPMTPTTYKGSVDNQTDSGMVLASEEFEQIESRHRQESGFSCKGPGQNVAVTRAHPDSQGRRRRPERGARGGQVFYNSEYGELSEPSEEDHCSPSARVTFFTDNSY

[17] = target: T1, Ephrin type-B receptor 4 (Homo sapiens, UniProt P54760); assay: Inhibition of EphB4
T1 sequence (P54760 whole entry): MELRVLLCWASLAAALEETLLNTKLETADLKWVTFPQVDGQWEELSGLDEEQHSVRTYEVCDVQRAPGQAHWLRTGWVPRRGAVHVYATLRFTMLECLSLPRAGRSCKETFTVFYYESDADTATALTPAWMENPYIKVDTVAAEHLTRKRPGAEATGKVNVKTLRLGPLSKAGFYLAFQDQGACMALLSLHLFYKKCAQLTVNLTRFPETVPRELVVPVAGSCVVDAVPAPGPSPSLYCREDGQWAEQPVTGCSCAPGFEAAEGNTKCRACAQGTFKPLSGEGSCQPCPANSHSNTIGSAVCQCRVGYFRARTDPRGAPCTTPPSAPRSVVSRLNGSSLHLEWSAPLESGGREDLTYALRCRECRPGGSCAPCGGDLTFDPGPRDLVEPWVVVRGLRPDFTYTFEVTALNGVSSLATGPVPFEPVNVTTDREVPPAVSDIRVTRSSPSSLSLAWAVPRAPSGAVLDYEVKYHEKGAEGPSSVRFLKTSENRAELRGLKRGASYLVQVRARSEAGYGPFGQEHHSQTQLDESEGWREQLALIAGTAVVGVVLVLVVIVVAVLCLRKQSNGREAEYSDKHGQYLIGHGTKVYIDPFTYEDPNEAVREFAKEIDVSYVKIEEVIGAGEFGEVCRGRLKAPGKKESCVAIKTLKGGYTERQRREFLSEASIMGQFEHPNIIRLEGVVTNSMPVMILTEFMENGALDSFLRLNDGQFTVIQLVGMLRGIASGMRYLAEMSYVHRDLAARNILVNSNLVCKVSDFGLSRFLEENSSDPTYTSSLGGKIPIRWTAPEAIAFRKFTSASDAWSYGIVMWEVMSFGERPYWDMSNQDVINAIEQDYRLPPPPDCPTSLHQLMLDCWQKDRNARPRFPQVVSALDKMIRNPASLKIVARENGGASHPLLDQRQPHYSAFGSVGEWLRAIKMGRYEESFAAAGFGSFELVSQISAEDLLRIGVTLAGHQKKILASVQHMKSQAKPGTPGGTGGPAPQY

[18] = target: Macrophage colony-stimulating factor 1 receptor (Homo sapiens, UniProt P07333)
[19] = target: T2, Ephrin type-B receptor 1 (Homo sapiens, UniProt P54762); assay: Inhibition of EphB1
T2 sequence (P54762 whole entry): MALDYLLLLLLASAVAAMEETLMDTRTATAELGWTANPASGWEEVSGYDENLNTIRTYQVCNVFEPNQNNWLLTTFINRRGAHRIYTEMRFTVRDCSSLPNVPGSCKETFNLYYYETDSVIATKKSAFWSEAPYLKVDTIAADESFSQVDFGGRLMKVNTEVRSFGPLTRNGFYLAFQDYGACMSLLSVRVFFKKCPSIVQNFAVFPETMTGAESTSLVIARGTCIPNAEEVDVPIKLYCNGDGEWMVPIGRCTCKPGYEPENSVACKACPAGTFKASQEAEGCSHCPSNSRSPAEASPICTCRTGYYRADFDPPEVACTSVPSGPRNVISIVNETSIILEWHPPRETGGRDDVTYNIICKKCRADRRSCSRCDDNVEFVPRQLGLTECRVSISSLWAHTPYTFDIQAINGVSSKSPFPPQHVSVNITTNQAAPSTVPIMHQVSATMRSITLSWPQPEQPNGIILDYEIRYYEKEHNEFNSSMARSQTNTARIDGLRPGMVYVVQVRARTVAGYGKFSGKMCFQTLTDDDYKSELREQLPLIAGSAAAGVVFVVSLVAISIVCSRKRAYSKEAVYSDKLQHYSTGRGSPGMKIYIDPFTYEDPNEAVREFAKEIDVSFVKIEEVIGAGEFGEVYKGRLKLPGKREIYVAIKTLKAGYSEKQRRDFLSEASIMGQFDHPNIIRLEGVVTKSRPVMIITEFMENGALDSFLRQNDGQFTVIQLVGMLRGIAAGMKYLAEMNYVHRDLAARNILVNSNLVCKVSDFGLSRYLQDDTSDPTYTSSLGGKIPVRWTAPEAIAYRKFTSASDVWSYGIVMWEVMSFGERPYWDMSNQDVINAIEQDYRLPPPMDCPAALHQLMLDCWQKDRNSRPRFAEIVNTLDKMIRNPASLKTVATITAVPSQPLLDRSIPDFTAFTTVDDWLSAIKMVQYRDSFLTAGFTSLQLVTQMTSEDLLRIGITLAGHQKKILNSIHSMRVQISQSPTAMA

[20] = target: Cyclin-dependent kinase 2 (Homo sapiens, UniProt P24941); assay: Inhibition of CDK2/CyclinA
[21] = Inhibition of Abl […] mutant
[22] = target: Vascular endothelial growth factor receptor 1 (Homo sapiens, UniProt P17948); assay: Inhibition of Flt1
[23] = target: Mast/stem cell growth factor receptor Kit (Homo sapiens, UniProt P10721); assay: Inhibition of Kit
Chain of Mast/stem cell growth factor receptor Kit (P10721 whole entry): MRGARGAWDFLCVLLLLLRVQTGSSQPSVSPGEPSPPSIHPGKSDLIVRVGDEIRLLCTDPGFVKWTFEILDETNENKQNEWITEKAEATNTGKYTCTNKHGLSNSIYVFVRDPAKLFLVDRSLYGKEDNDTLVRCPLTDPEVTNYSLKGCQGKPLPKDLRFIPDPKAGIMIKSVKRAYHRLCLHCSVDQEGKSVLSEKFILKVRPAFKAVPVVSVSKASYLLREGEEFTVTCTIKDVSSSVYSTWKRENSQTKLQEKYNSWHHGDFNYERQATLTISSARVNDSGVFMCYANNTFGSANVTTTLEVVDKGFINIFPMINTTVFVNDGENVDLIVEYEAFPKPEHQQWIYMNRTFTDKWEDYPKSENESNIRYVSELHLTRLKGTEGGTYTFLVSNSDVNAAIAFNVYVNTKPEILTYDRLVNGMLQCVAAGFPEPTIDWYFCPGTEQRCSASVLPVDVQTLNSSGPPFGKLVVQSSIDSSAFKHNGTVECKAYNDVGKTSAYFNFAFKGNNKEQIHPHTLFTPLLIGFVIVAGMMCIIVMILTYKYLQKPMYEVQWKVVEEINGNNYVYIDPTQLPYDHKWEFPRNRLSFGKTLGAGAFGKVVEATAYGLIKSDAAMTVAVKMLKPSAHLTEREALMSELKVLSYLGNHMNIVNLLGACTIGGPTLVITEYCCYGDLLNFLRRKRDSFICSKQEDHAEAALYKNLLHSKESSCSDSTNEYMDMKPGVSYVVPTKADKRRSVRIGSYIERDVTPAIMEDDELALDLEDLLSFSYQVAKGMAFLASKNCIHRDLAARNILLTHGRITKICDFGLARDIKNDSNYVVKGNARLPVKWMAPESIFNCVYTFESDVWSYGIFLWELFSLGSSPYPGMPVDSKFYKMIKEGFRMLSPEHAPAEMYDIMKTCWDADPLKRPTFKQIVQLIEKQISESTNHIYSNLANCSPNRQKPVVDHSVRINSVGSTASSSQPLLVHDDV

Cc1cccc(C)c1/C=C/n1cnc2c(Nc3ccc(P(C)(C)=O)cc3)nc(N3CCCC3)nc21
IC50 [1]: 89.1 nM
IC50 [2]: 123 nM

CP(C)(=O)c1ccc(Nc2ncnc3c2ncn3/C=C/c2cccc3[nH]ncc23)cc1
IC50 [1]: 355 nM
IC50 [2]: 850 nM

Cc1cccc(C)c1/C=C/n1cnc2c(Nc3ccc(P(C)(C)=O)cc3)nc(N3CCOCC3)nc21
IC50 [3]: < 0.23 nM
IC50 [4]: 3.02 nM
IC50 [2]: 20.8 nM

Cc1cccc(Cl)c1/C=C/n1cnc2c(Nc3ccc(P(C)(C)=O)cc3)ncnc21
IC50 [1]: 109 nM
half-life [5]: 164 min
Cmax [6]: 1680 ng/mL
half-life [7]: 198 min
bioavailability [8]: 17%
Vd [9]: 2.74 L/kg
Cmax [10]: 4590 ng/mL
IC50 [2]: 200 nM

CP(C)(=O)c1ccc(Nc2ncnc3c2ncn3/C=C/c2cccc3[nH]ccc23)cc1
IC50 [1]: 954 nM
IC50 [2]: 1540 nM

CCCP(=O)(CCC)c1ccc(Nc2ncnc3c2ncn3/C=C/c2c(C)cccc2C)cc1
IC50 [1]: 368 nM
half-life [5]: 72 min
bioavailability [8]: 0%
Vd [9]: 2.7 L/kg
Cmax [10]: 5140 ng/mL
IC50 [2]: 286 nM

Cc1cccc(C)c1/C=C/n1cnc2c(Nc3ccc(P(C)(C)=O)cc3)nc(N(C)C)nc21
IC50 [1]: 217 nM
IC50 [2]: 269 nM

Cc1cccc(C)c1/C=C/n1cnc2c(Nc3ccc(P(C)(C)=O)cc3)nc(-n3ccnc3)nc21
IC50 [1]: 53.7 nM
IC50 [3]: < 0.46 nM
IC50 [4]: 1.63 nM

Cc1cccc(C)c1/C=C/n1cnc2c(Nc3ccc(P(C)(C)=O)cc3)nc(C(C)C)nc21
IC50 [1]: 22.7 nM
half-life [5]: 450 min
Cmax [6]: 478 ng/mL
half-life [7]: 306 min
bioavailability [8]: 25%
Vd [9]: 5.4 L/kg
Cmax [10]: 1220 ng/mL
IC50 [2]: 27.1 nM

Cc1cccc(C)c1/C=C/n1cnc2c(Nc3ccc(P(C)(C)=O)cc3)nc(C3CCCC3)nc21
IC50 [1]: 224 nM

COCCOc1nc(Nc2ccc(P(C)(C)=O)cc2)c2ncn(/C=C/c3c(C)cccc3C)c2n1
IC50 [1]: 26.7 nM
IC50 [3]: < 0.46 nM
IC50 [4]: 1.57 nM
IC50 [2]: 51.7 nM

Cc1cccc(C)c1/C=C/n1cnc2c(Nc3ccc(P(C)(C)=O)cc3)nc(C3CCN(C)CC3)nc21
IC50 [1]: 28 nM
IC50 [3]: < 0.46 nM
IC50 [4]: < 0.46 nM
IC50 [2]: 285 nM

CCCP(=O)(CCC)c1ccc(Nc2nc(C(C)C)nc3c2ncn3/C=C/c2ccccc2)cc1
IC50 [1]: > 1000 nM

CCCP(=O)(CCC)c1ccc(Nc2nc(C(C)C)nc3c2ncn3/C=C\c2ccccc2)cc1
IC50 [1]: > 1000 nM

Cc1cccc(C)c1/C=C/n1cnc2c(Nc3ccc(P(C)(C)=O)cc3)ncnc21
IC50 [11]: 221 nM
IC50 [12]: > 1000 nM
IC50 [1]: 109 nM
IC50 [13]: > 1000 nM
IC50 [14]: > 1000 nM
IC50 [15]: 21 nM
IC50 [16]: 151 nM
IC50 [17]: 30 nM
half-life [5]: 236 min
Cmax [6]: 1280 ng/mL
IC50 [18]: 3 nM
half-life [7]: 300 min
bioavailability [8]: 20%
IC50 [3]: 8.31 nM
IC50 [4]: 3.58 nM
IC50 [19]: 6 nM
IC50 [20]: > 1000 nM
Vd [9]: 0.98 L/kg
IC50 [21]: > 1000 nM
Cmax [10]: 4320 ng/mL
IC50 [2]: 168 nM
IC50 [22]: 591 nM
IC50 [23]: 414 nM

COc1nc(Nc2ccc(P(C)(C)=O)cc2)c2ncn(/C=C/c3c(C)cccc3C)c2n1
IC50 [1]: 52.4 nM
IC50 [3]: < 0.46 nM
IC50 [4]: 1.8 nM
IC50 [2]: 32.7 nM

Cc1cccc(C)c1/C=C/n1cnc2c(Nc3ccc(P(C)(C)=O)cc3)nc(N3CCN(C)CC3)nc21
IC50 [1]: 23.5 nM
IC50 [3]: < 0.23 nM
IC50 [4]: 6.8 nM
IC50 [2]: 73.7 nM

CP(C)(=O)c1ccc(Nc2ncnc3c2ncn3/C=C/c2ccccc2Cl)cc1
IC50 [1]: 1390 nM
IC50 [2]: 2010 nM

Cc1ccc2[nH]ncc2c1/C=C/n1cnc2c(Nc3ccc(P(C)(C)=O)cc3)ncnc21
IC50 [1]: 10.5 nM
half-life [5]: 72 min
Cmax [6]: 22 ng/mL
bioavailability [8]: 0%
IC50 [3]: < 0.46 nM
IC50 [4]: < 0.46 nM
Vd [9]: 1.9 L/kg
Cmax [10]: 7080 ng/mL
IC50 [2]: 37.3 nM

Cc1cccc(C)c1/C=C/n1cnc2c(Nc3ccc(P(C)(C)=O)cc3)nc(OC(C)C)nc21
IC50 [1]: 40.6 nM
IC50 [3]: < 0.46 nM
IC50 [4]: 7.32 nM
IC50 [2]: 34.8 nM

Cc1cccc(C)c1/C=C/n1cnc2c(Nc3ccc(P(C)(C)=O)cc3)nc(CCC#N)nc21
IC50 [1]: 15.8 nM
IC50 [3]: < 0.46 nM
IC50 [4]: < 0.46 nM
IC50 [2]: 38.6 nM

Cc1cccc(C)c1/C=C/n1cnc2c(Nc3ccc(P(C)(C)=O)cc3)nc(Oc3cccnc3)nc21
IC50 [1]: 8.5 nM
IC50 [3]: < 0.46 nM
IC50 [4]: 0.5 nM
IC50 [2]: 35.1 nM

CCCP(=O)(CCC)c1ccc(Nc2nc(C(C)C)nc3c2ncn3/C=C\c2c(C)cccc2C)cc1
IC50 [1]: 964 nM

CCCP(=O)(CCC)c1ccc(Nc2nc(C(C)C)nc3c2ncn3/C=C/c2c(C)cccc2C)cc1
IC50 [1]: 115 nM
IC50 [2]: 122 nM
